US20200276258A1, “PHARMACEUTICAL COMPOSITION FOR CONTROLLING BLOOD SUGAR” (BEIJING HEBABIZ BIOTECHNOLOGY CO., Inc., priority 2017, published 2020)
Structures can show the parent of a compound that is named as a salt.

How the values were obtained:
[1] = tested on: type 2 diabetes rat model (high-fat and high-sugar feed + streptozotocin); test: Combined drug use experiment (HH003B with Empagliflozin): HbA1c in rat model; type: in vivo, Wistar rats; conditions: model rats
Description: Wistar rats were bred adaptively for 1 week. The subjects were randomly divided into the normal Control group (10) and the modeling group (60) according to their body weight from the second week. The normal Control group (Control) was fed with basic feed, and the model group was fed with high-fat and high-sugar feed. […] On the 9th weekend, rats fasted overnight, measured FBG and insulin levels, and calculated the insulin index (ISI). The model would be successfully established if the fasting blood glucose (>) was 11.1 mmol/L and the ISI was decreased. The successfully modeled rats were randomly divided into Model group, Metformin hydrochloride group, HH003 group, and HH003B group, with 10 rats in each group. […] Fasting but gave water after the last dose, and then weighted the rats after 12 hours. Detected the content of fasting insulin (Insulin), separated the serum, detected the high-density lipoprotein (HDL), free fatty acid (FFA) and glycosylated hemoglobin (GHB). […] Empagliflozin group was given by gavage 1 mg/kg once a day. […] HbA1c was determined at the end of the experiment.

[2] = tested on: type 2 diabetes rat model (high-fat and high-sugar feed + streptozotocin); test: Pharmacodynamic experiment: biochemical indexes of rat model after 4 weeks of administration; type: in vivo, Wistar rats; conditions: model rats
Description: Wistar rats were bred adaptively for 1 week. The subjects were randomly divided into the normal Control group (10) and the modeling group (60) according to their body weight from the second week. The normal Control group (Control) was fed with basic feed, and the model group was fed with high-fat and high-sugar feed. […] On the 9th weekend, rats fasted overnight, measured FBG and insulin levels, and calculated the insulin index (ISI). The model would be successfully established if the fasting blood glucose (>) was 11.1 mmol/L and the ISI was decreased. The successfully modeled rats were randomly divided into Model group, Metformin hydrochloride group, HH003 group, and HH003B group, with 10 rats in each group. […] Fasting but gave water after the last dose, and then weighted the rats after 12 hours. Detected the content of fasting insulin (Insulin), separated the serum, detected the high-density lipoprotein (HDL), free fatty acid (FFA) and glycosylated hemoglobin (GHB).

[3] = 4 weeks, metformin hydrochloride 200 mg/kg daily gavage, HH003/HH003B 30% of feed (about 13 g/d/kg)

SMILES | HbA1c (glycosylated hemoglobin) ([1]; 4 weeks, Empagliflozin 1 mg/kg gavage once a day, HH003B 15% of feed (about 7 g/d/kg), combination both) [mg/dL] | effect on glycosylated hemoglobin, in words ([1]; Empagliflozin 1 mg/kg, HH003B reduced dose (15% of feed)) | effect on HDL level, in words ([2]; 4 weeks of administration) | effect on glycosylated hemoglobin GHB level, in words ([2]; 4 weeks of administration, versus Model and Control groups) | effect on the disease condition of type 2 diabetes, in words ([2]; 4 weeks, HH003/HH003B 30% of feed, metformin hydrochloride 200 mg/kg) | FFA (free fatty acid), serum [2, 3] [mmol/L] | GHB (glycosylated hemoglobin) [2, 3] [mmol/L] | HDL (high-density lipoprotein), serum [2, 3] [mmol/L] | Insulin (fasting insulin) ([2]; 4 weeks, metformin hydrochloride 200 mg/kg daily gavage, HH003/HH003B 30% of feed (about 13 g/d/kg), 12 h fasting, mean ± spread) [uIU/ml]
OC[C@H]1O[C@@H](c2ccc(Cl)c(Cc3ccc(O[C@H]4CCOC4)cc3)c2)[C@H](O)[C@@H](O)[C@@H]1O [Empagliflozin] | 7.01 ± 0.17 | no effect | – | – | – | – | – | – | –
CN(C)C(=N)N=C(N)N [Metformin, metformin hydrochloride] | – | – | significantly increase HDL level | significantly reduce the GHB level of the rats but still significantly higher than that of the normal rats | only improve the disease condition of type 2 diabetes to a certain extent | 0.56 ± 0.03 | 15.07 ± 0.85 | 0.74 ± 0.15 | 31.15 ± 6.28
